Measurements: patent US20260035355A1, “COMPOUND, PHARMACEUTICAL COMPOSITION COMPRISING SAME, AND USE THEREOF” (SHENZHEN ZHONGGE BIOLOGICAL TECHNOLOGY CO., LTD., priority 2022, published 2026)

Molecular target: T1, eIF2B (Homo sapiens, UniProt P49770+Q9UI10)
T1 construct: endogenous in cells; host or cells: HEK293T/17-ATF4 uORF-Luc-Puro monoclonal cells
Assay: ATF4-Luc assay (ATF4 luciferase reporter, thapsigargin-induced stress)
Format: cell-based
Details: HEK293T/17-ATF4 uORF-Luc-Puro monoclonal cells, 50 nM thapsigargin, incubated for 6 hours
Description: The ATF4 luciferase reporter plasmid consists of two parts, i.e., the 5′ untranslated region sequence of the ATF4 gene and the luciferase coding sequence. Specifically, the ATF4 5′ untranslated region sequence (NCBI database number BC022088.2) containing two upstream open reading frames (uORFs), and the firefly luciferase encoding gene were cloned into the pLVX-Puro vector (YouBio, VT1465). The packaging plasmids of lentivirus were psPAX2 (YouBio, VT1444) and pMD2.G (YouBio, VT1443). 650,000 HEK293T cells were seeded per well of a 6-well plate and cultured overnight in a 5% CO2 incubator. The cells were transfected with the packaged lentivirus for 48 hours and then centrifuged, and the supernatant was discarded. The medium was replaced and changed to the DMEM complete medium containing 0.8 μg/ml puromycin, and the cells were resuspended and then cultured. After one week of cell screening with puromycin, the surviving cells were HEK293T-ATF4 uORF-Luc-Puro polyclonal cells. 200 polyclonal cells were taken and subjected to limiting gradient dilution by using a 96-well plate, so as to obtain monoclonal cells.
The specific method for screening the monoclonal cells involves: placing the 200 polyclonal cells in well A1 of the 96-well plate; step one: performing gradient dilution from columns A1 to H1 at a ratio of 1:2; step two: performing gradient dilution from rows A to H, with each row from wells 1 to 12 at a ratio of 1:2; marking the wells with a theoretical cell number less than 0.5 and observing one by one under a microscope; marking the wells with only one cell; and culturing the cells for two weeks to obtain the monoclonal cells.
By using this cell line and the cold fluorescence readings, the translational regulation of ATF4 can be detected, and the activity of eIF2B activated by the compounds can be tested.
The specific experimental process is as follows: 6000 HEK293T/17-ATF4 uORF-Luc-Puro monoclonal cells were plated in a 384-well plate and allowed to adhere overnight. The test compounds were dissolved in DMSO and diluted to 10 different concentrations, which were respectively added together with 50 nM thapsigargin to the cell culture medium and incubated for 6 hours, wherein the thapsigargin was used to cause cellular stress and upregulate the protein translation of ATF4. Six hours after the addition, the cells were lysed using the One-Glo Luciferase Assay Kit (Promega #E6120), and then the cold fluorescence values were read using the LUM program of the EnVision 2104 plate reader.
EC50 was calculated based on the fluorescence values at 9 concentrations (0.1 nM, 0.3 nM, 1.0 nM, 3.0 nM, 10.0 nM, 30.0 nM, 100.0 nM, 300.0 nM and 1000.0 nM) of each compound and recorded in Table 1.
The ATF4 reporter expression was calculated as follows:
ATF4 reporter expression=(ave_sample-ave_vc)/(ave_pc-ave_vc)
where ave_vc represents the average signal value of negative controls, ave_pc represents the average signal value of positive controls, and ave_sample represents the average signal value of samples.
The dose-response curves were fitted, and the EC50 values were calculated.
The nonlinear regression log(inhibitor) vs. response—variable slope (four parameters) method of GraphPad 9 software was used to fit the corresponding relationship between the ATF4 reporter expression and the compound concentration.
The X-axis represents the log value of the compound concentration; and the Y-axis represents the ATF4 reporter expression.

T1 sequence (P49770 whole entry): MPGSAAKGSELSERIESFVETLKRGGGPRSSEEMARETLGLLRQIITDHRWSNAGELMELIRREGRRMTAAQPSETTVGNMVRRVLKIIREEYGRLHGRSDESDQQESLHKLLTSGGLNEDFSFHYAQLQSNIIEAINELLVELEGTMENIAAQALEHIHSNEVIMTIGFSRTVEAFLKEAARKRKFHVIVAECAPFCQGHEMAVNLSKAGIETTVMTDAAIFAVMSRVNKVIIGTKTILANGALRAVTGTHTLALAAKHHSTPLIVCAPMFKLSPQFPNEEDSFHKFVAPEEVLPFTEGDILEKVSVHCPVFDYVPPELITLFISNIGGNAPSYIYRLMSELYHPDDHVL
T1 sequence (Q9UI10 whole entry): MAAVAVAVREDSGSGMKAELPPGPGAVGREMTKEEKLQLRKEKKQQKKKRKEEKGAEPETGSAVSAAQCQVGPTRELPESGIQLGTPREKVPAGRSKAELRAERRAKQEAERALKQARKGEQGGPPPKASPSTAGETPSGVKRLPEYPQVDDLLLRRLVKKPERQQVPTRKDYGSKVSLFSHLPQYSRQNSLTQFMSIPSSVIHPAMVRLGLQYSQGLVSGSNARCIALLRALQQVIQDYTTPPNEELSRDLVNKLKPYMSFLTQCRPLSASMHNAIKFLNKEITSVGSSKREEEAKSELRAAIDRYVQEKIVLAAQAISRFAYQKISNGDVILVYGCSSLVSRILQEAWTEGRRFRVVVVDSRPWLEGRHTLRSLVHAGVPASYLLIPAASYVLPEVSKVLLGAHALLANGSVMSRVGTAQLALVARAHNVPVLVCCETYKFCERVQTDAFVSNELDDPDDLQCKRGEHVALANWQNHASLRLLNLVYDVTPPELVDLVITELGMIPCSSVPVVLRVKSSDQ
T1 sequence (Q14232 whole entry partner): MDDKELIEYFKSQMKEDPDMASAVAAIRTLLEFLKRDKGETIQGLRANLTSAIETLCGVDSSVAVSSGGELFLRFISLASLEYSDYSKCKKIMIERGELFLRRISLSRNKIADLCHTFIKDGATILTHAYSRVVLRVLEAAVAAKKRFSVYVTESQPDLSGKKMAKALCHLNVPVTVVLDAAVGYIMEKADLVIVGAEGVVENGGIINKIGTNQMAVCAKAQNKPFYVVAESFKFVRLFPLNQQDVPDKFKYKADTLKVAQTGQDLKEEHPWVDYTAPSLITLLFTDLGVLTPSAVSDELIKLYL
T1 sequence (Q9NR50 whole entry partner): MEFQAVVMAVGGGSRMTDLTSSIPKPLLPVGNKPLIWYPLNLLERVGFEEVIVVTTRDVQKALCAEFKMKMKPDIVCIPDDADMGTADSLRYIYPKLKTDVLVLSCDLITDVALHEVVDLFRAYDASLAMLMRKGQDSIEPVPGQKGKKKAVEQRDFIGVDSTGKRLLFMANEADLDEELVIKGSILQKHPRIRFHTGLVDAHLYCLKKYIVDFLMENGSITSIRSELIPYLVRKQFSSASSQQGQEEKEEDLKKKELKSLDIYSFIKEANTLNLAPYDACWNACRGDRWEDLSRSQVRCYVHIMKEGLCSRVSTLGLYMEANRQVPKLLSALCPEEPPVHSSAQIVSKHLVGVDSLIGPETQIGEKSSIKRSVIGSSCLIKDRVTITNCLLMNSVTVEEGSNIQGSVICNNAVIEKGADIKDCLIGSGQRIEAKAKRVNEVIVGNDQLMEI
T1 sequence (Q13144 whole entry partner): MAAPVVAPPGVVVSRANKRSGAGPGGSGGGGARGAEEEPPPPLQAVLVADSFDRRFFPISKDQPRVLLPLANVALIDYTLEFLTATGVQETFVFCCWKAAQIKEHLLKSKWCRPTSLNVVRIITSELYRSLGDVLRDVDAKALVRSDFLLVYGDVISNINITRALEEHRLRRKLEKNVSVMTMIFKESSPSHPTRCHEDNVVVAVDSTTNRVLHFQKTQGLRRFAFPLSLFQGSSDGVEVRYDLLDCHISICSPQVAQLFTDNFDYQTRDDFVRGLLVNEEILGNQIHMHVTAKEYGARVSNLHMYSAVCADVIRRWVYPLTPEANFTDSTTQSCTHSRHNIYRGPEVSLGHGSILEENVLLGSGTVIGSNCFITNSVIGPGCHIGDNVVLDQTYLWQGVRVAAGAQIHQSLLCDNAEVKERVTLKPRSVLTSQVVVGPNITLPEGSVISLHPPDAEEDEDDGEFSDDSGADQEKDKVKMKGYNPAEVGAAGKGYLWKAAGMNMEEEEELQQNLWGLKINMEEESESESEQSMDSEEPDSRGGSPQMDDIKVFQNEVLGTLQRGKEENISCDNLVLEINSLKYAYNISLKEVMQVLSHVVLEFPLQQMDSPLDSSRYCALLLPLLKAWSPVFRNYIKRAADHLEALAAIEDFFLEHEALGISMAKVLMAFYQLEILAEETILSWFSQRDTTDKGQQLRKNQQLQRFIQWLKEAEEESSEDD

Compound	EC50
O=C(COc1ccc(Cl)c(F)c1)NC1CC12CCN(C(=O)c1cnc(C(F)F)cn1)CC2 (stereo not drawn) [I-1]	> 100 nM
O=C(COc1ccc(Cl)c(F)c1)NC1CC12CCN(C(=O)c1cc3cc(Cl)ccc3o1)CC2 (stereo not drawn) [I-2]	> 100 nM
O=C(COc1ccc(Cl)c(F)c1)NC1CC12CCN(C(=O)[C@H]1CNc3cc(Cl)ccc3O1)CC2 (stereo partly drawn) [I-3]	> 100 nM
CN1C[C@H](C(=O)N2CCC3(CC2)CC3NC(=O)COc2ccc(Cl)c(F)c2)Oc2ccc(Cl)cc21 (stereo partly drawn) [I-4]	> 100 nM
O=C(COc1ccc(Cl)c(F)c1)NC1CC12CCN(NC(=O)COc1ccc(Cl)c(F)c1)CC2 (stereo not drawn) [I-5]	> 100 nM
O=C(COc1ccc(Cl)c(F)c1)NC1CC12CCN(NC(=O)c1cc3cc(Cl)ccc3o1)CC2 (stereo not drawn) [I-6]	> 100 nM
O=C(COc1ccc(Cl)c(F)c1)NC1CC12CCN(NC(=O)[C@H]1CNc3cc(Cl)ccc3O1)CC2 (stereo partly drawn) [I-7]	> 100 nM
CN1C[C@H](C(=O)NN2CCC3(CC2)CC3NC(=O)COc2ccc(Cl)c(F)c2)Oc2ccc(Cl)cc21 (stereo partly drawn) [I-8]	> 100 nM
O=C(NC1CC12CCN(C(=O)c1cc3cc(Cl)ccc3o1)CC2)c1cc2cc(Cl)ccc2o1 (stereo not drawn) [I-9]	> 100 nM
O=C(NC1CC12CCN(NC(=O)c1cc3cc(Cl)ccc3o1)CC2)c1cc2cc(Cl)ccc2o1 (stereo not drawn) [I-10]	10 to 100 nM
O=C(COc1ccc(Cl)c(F)c1)NC1COC2(C1)CN(C(=O)c1cnc(C(F)F)cn1)C2 (stereo not drawn) [II-10]	> 100 nM
O=C(COc1ccc(Cl)c(F)c1)NC1COC2(C1)CN(C(=O)COc1ccc(Cl)c(F)c1)C2 (stereo not drawn) [II-11]	> 100 nM
O=C(COc1ccc(Cl)c(F)c1)NC1COC2(C1)CN(C(=O)c1cc3cc(Cl)ccc3o1)C2 (stereo not drawn) [II-12]	10 to 100 nM
O=C(COc1ccc(Cl)c(F)c1)NC1COC2(C1)CN(C(=O)[C@H]1CNc3cc(Cl)ccc3O1)C2 (stereo partly drawn) [II-13]	> 100 nM
CN1C[C@H](C(=O)N2CC3(CC(NC(=O)COc4ccc(Cl)c(F)c4)CO3)C2)Oc2ccc(Cl)cc21 (stereo partly drawn) [II-14]	> 100 nM

The remaining lines, values ahead:

EC50	Compound
< 10 nM	O=C(COc1ccc(Cl)c(F)c1)NC1CC2(C1)CC(c1nnc(N3CC(OC(F)(F)F)C3)o1)C2 (stereo not drawn) [III-1]
> 100 nM	O=C(COc1ccc(Cl)c(F)c1)NC1CC2(C1)CC(NC(=O)COc1ccc(Cl)c(F)c1)C2 (stereo not drawn) [III-10]
> 100 nM	O=C(COc1ccc(Cl)c(F)c1)NC1CC2(C1)CC(NC(=O)c1cnc(C(F)F)cn1)C2 (stereo not drawn) [III-11]
> 100 nM	CN1CC(C(=O)NC2CC3(CC(NC(=O)COc4ccc(Cl)c(F)c4)C3)C2)Oc2ccc(Cl)cc21 (stereo not drawn) [III-12]
10 to 100 nM	O=C(COc1ccc(Cl)c(F)c1)NC1CC2(C1)CC(NC(=O)C1CNc3cc(Cl)ccc3O1)C2 (stereo not drawn) [III-13]

Test system: not listed separately
Assay: Evaluation of cell membrane permeability
Format: in vitro ADME
Details: 10 μM, 120 minutes; read-out: Efflux Ratio (Papp B to A/Papp A to B)
Method: (§1) The test compounds were diluted from 10 mM stock solutions to a concentration of 10 μM using the transport buffer (HBSS+BSA) and applied to the apical or basolateral side of the cell monolayer. After the incubation at 37° C., 5% CO2 and 95% relative humidity for 120 minutes, the permeability of the test compounds in the A to B direction or the B to A direction was dually determined. In addition, the efflux ratio (Papp B to A/Papp A to B) of each compound was determined. The test substances and reference substances were quantitatively analyzed by the LC-MS/MS method based on the analyte/IS peak area ratio.

efflux ratio at 120 min, 10 μM	Compound
1.05	O=C(COc1ccc(Cl)c(F)c1)NC1CC2(C1)CC(c1nnc(N3CC(OC(F)(F)F)C3)o1)C2 (stereo not drawn) [III-1]

Same assay, conditions: 10 μM, transport buffer (HBSS+BSA), 37° C., 120 minutes

Papp A→B at 120 min, 10 μM	Papp B→A at 120 min, 10 μM	Compound
17.7 ×10⁻⁶ cm/s	18.6 ×10⁻⁶ cm/s	O=C(COc1ccc(Cl)c(F)c1)NC1CC2(C1)CC(c1nnc(N3CC(OC(F)(F)F)C3)o1)C2 (stereo not drawn) [III-1]

Test system: cell monolayer
Assay: Evaluation of cell membrane permeability
Format: in vitro ADME
Details: not given
Method: as §1

P-glycoprotein substrate (in words)	cell membrane permeability (in words)	Compound
not P-glycoprotein substrates	good cell membrane permeability	O=C(COc1ccc(Cl)c(F)c1)NC1CC2(C1)CC(c1nnc(N3CC(OC(F)(F)F)C3)o1)C2 (stereo not drawn) [III-1]

Test system: not listed separately
Assay: Pharmacokinetic evaluation in mice
Format: in vivo
Details: mouse, in vivo
Method: The test compounds were dissolved in vehicles to prepare clear solutions or homogeneous suspensions. Three mice were placed in each group and received an intravenous (IV) administration via the tail vein at 1 mg/kg and an oral (PO) administration at 30 mg/kg. Blood samples were collected at 0.083 h, 0.25 h, 0.5 h, 1 h, 2 h, 4 h, 8 h, and 24 h after the intravenous administration, and at 0.25 h, 0.5 h, 1 h, 2 h, 4 h, 6 h, 8 h, and 24 h after the oral administration. Plasma samples were centrifuged, and the supernatant was collected to prepare samples, which were then quantitatively analyzed by LC/MS/MS.

Compound	pharmacokinetic properties in mice (in words)
O=C(COc1ccc(Cl)c(F)c1)NC1CC2(C1)CC(c1nnc(N3CC(OC(F)(F)F)C3)o1)C2 (stereo not drawn) [III-1]	excellent pharmacokinetic properties in mice

Same assay, conditions: plasma; mouse IV 1 mg/kg

AUC(0-inf)	C0	clearance	half-life	Compound
2230 ng·h/mL	1340 ng/mL	7.5 mL/min/kg	124 min	O=C(COc1ccc(Cl)c(F)c1)NC1CC2(C1)CC(c1nnc(N3CC(OC(F)(F)F)C3)o1)C2 (stereo not drawn) [III-1]

Same assay, conditions: plasma; mouse IV 1 mg/kg; read-out: Vss

Vd	Compound
1.18 L/kg	O=C(COc1ccc(Cl)c(F)c1)NC1CC2(C1)CC(c1nnc(N3CC(OC(F)(F)F)C3)o1)C2 (stereo not drawn) [III-1]

Same assay, conditions: plasma; mouse PO 30 mg/kg

AUC(0-inf)	Cmax	Tmax	bioavailability	half-life	Compound
111000 ng·h/mL	21500 ng/mL	1.33 h	177%	116 min	O=C(COc1ccc(Cl)c(F)c1)NC1CC2(C1)CC(c1nnc(N3CC(OC(F)(F)F)C3)o1)C2 (stereo not drawn) [III-1]
